Data on one molecule can be found in publication PMC10641818, “Development of First-in-Class Dual Sirt2/HDAC6 Inhibitors as Molecular Tools for Dual Inhibition of Tubulin Deacetylation” (Journal of Medicinal Chemistry, 2023).

The target of test [1] is Sirt2 (demyristoylation) (Homo sapiens, UniProt Q8IXJ6). Kind of test: Continuous Sirt2 demyristoylation assay (myristoylated peptide substrate). The test is classed as biochemical. The conditions noted are these: peptide-based myristoylated substrate, triplicate; read-out: Sirt2-mediated demyristoylation IC50. The protocol: As a second method to confirm the inhibition of Sirt2-mediated demyristoylation by 33, we used a continuous Sirt2 demyristoylation assay as reported by Zessin et al.[48] In brief, this assay was performed in a black 384-well fluorescence plate in a total volume of 40 μL of Sirt assay buffer (20 mM Tris-HCl, 150 mM NaCl, 5 mg/mL MgCl2, 2 mg/mL BSA, pH 7.8). Dilution series of the inhibitor was done in DMSO. A total of 2 μL of the inhibitor dilutions were incubated with 14 μL of the peptide substrate, referred to as F4 in Zessin et al.[48] (final concentration 40 nM) and 14 μL of Sirt2 solution (final concentration 1 nM) for 5 min at room temperature. In addition to the inhibitor-containing samples, a sample without inhibitors was measured as a positive control, and a sample without enzymes was measured as a negative control. The DMSO concentration was set to 5% (v/v). The reaction was started by the addition of 10 μL of NAD^+ (final concentration 500 μM). The product formation was monitored by the change in fluorescence intensity, and the reaction rate represented the activity. Fluorescence readout was performed with a BMG Fluostar Omega plate reader at following wavelengths: Excitation wavelength: λEx = 485 ± 10 nm, emission wavelength: λEm = 530 ± 10 nm. Inhibition was calculated using the following equation: [drawing 1] […]
Sequence of Sirt2 (demyristoylation) (Q8IXJ6 whole entry): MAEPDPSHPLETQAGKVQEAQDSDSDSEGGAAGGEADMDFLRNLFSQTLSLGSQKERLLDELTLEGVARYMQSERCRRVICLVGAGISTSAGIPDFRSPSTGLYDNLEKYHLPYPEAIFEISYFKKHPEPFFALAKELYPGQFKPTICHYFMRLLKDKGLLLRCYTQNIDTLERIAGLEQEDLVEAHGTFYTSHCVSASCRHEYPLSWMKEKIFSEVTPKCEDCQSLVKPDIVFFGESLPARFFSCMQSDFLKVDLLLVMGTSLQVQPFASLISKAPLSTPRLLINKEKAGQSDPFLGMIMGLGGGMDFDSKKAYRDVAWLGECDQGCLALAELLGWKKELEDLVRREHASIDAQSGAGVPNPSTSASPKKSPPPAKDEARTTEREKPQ

In test [2] the target is T1, HDAC7 (Homo sapiens, UniProt Q8WUI4).
T1 sequence (Q8WUI4 1-952): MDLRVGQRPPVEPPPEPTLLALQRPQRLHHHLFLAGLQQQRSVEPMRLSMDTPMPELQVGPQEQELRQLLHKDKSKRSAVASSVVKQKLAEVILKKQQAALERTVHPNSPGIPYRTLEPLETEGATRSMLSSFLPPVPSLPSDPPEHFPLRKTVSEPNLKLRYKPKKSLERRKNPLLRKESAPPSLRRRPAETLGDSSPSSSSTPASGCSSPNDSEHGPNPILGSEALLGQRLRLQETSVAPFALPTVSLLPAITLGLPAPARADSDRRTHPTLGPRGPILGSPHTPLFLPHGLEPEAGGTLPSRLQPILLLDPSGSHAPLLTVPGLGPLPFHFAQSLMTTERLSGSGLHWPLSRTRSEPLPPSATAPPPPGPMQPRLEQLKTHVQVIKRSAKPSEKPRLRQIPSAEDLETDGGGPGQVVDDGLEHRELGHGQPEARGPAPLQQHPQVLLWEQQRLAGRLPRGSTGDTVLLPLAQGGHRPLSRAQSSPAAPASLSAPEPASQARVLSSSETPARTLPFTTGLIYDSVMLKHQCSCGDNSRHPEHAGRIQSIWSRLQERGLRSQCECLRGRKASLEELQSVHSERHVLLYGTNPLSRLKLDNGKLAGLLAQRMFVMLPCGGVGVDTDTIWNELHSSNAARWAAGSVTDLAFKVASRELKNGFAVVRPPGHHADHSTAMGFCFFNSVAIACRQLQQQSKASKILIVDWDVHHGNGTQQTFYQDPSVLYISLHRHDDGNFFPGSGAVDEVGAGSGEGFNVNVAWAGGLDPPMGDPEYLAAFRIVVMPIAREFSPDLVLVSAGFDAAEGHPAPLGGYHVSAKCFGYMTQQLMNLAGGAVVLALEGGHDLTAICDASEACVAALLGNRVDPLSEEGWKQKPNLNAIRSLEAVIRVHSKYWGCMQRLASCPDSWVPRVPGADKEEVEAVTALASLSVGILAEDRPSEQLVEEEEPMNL
Kind of test: HDAC7 continuous fluorescence deacylation assay. The test is classed as biochemical.

For the molecule `CCCCN(Cc1ccc(C(=O)NO)cc1)C(=O)CCCCn1cc(COc2cccc(Cc3cnc(NC(=O)CSc4nc(C)cc(C)n4)s3)c2)nn1` [Compound 33, 4-((N-Butyl-5-(4-((3-((2-(2-((4,6-dimethylpyrimidin-2-yl)thio)acetamido)thiazol-5-yl)methyl)phenoxy)methyl)-1H-1,2,3-triazol-1-yl)pentanamido)methyl)-N-hydroxybenzamide], the figures for the IC50 in test [1] and in test [2] were 880 ± 90 nM and more than 6 µM, respectively. The inhibition (in general, how much of the control response was suppressed) at 6 µM in test [2] (@ 6 µM, read-out: HDAC7 percentual inhibition) stood at 29%. In addition, the inhibition at 20 µM in test [2] (@ 20 μM, read-out: HDAC7 percentual inhibition) amounted to 57%.
